Laboratory results reported in paper PMC5344293, “A phase 1 dose-escalation and expansion study of binimetinib (MEK162), a potent and selective oral MEK1/2 inhibitor” (British Journal of Cancer, 2017).
Entries after “also recorded” stand apart in the source; their conditions may differ. Like-named read-outs stand apart in the source and are kept apart here.

Experiments:
[1] = Plasma pharmacokinetics in patients; format: in vivo, human; conditions: for RAUC (accumulation ratio) / Cmax / AUC(0-t): geometric mean (% CV); for Cmax / AUC(0-t) / Tmax: human, plasma, oral
Procedure: Blood for plasma binimetinib and metabolite concentration assessments was collected on cycle 1 day 1 (pre-dose and 30 min to 24 h post dose), cycle 1 day 15 (pre-dose and 30 min to 8 h post dose), and cycles 2 to 8 day 1 (pre-dose) from patients in the dose-escalation phase and from selected patients in the biliary cancer cohort of the expansion phase (intensive pharmacokinetic sampling). The remaining patients in the expansion phase underwent limited pharmacokinetic sampling on cycle 1 day 1 (pre-dose), cycle 1 day 8 (pre-dose), cycle 1 day 15 (pre-dose and 30 min to 8 h post dose), cycle 2 day 1 (pre-dose), cycle 3 day 1 (pre-dose and 30 min to 8 h post dose), and cycles 4–8 day 1 (pre-dose). Standard non-compartmental pharmacokinetic parameters were calculated on serial pharmacokinetic collection days (cycle 1 day 1 and cycle 1 day 15 for the dose-escalation phase; cycle 1 day 15 and cycle 3 day 1 for the expansion phase) for each patient and summarised by cohort. Dose proportionality, accumulation, and metabolite-to-parent ratio were assessed as appropriate.

Ki67 = assay: Skin punch biopsy Ki67 immunohistochemistry; format: in vivo, human; conditions: cycle 1 day 15
Procedure: Skin punch biopsies (with hair follicles, if feasible) were obtained from patients in the dose-escalation phase and colorectal cancer expansion phase cohorts pre-dose at baseline and post dose within 7 days of cycle 1 day 15 for measurement of Ki67 and pERK expression. Ki67 and pERK expression were determined by immunohistochemistry using a Ki67 rabbit monoclonal antibody (clone 30-9; Ventana Medical Systems, Inc., Tucson, AZ, USA) and a pERK rabbit monoclonal antibody (Thr202/Tyr204, clone 20G11; Cell Signaling Technology, Inc., Danvers, MA), respectively, visualised with DAB and counterstained with haematoxylin. Ki67 was expressed as percentage of tumour cells with positive stain; pERK was expressed as an H-score.

[2] = tested on: C-reactive protein, interferon, IL-10, IL-12p70, IL-1β, IL-6, or IL-8; assay: Serum cytokines other than TNF-α; format: in vivo, human
NRAS-mutant melanoma [3] = tested on: NRAS-mutant melanoma; parameters: method as in Dummer et al, 2016; conditions: patients with NRAS-mutant melanoma; ref Dummer et al, 2016; cited from earlier work
NRAS-mutant melanoma [4] = tested on: NRAS-mutant melanoma; parameters: method as in Ascierto et al, 2013; Van Herpen et al, 2015; conditions: patients with advanced NRAS-mutant melanoma; ref Ascierto et al, 2013; Van Herpen et al, 2015; cited from earlier work
pMEK = assay: Skin punch biopsy pMEK expression; format: in vivo, human; conditions: pre-dose and post-dose skin punch biopsies
human cancer cell lines = tested on: human cancer cell lines; parameters: method as in Lee et al, 2010; conditions: subset of cells; particularly active with activating BRAF, NRAS, KRAS mutations; ref Lee et al, 2010; cited from earlier work
[5] = tested on: biliary cancer, KRAS- or BRAF-mutant colorectal cancer; assay: Kaplan–Meier PFS and OS, expansion phase cohorts; format: in vivo, human
Procedure: All patients who received ⩾1 dose of binimetinib were included in the safety analysis. Patients in the safety analysis who had ⩾1 measurable lesion at baseline and at least 1 post-baseline disease assessment were evaluable for efficacy. Kaplan–Meier estimates of progression-free survival (PFS) and overall survival (OS) were performed for patients in the expansion phase ([Kaplan and Meier, 1958]) using SAS Version 9.2 (SAS Institute Inc., Cary, NC, USA).

[6] = parameters: method as in Watanabe et al, 2016; conditions: BID; Japanese patients with advanced solid tumours; ref Watanabe et al, 2016; cited from earlier work
ERK phosphorylation = tested on: ERK phosphorylation; parameters: method as in Lee et al, 2010; conditions: human cell lines; ref Lee et al, 2010; cited from earlier work
[7] = tested on: xenograft models derived from melanoma, colorectal cancer, NSCLC, fibrosarcoma, cholangiocarcinoma, and pancreatic cancer; parameters: method as in Lee et al, 2010; Woessner et al, 2010; conditions: non-clinical data, ref Lee et al, 2010, Woessner et al; cited from earlier work
purified MEK enzyme = target: purified MEK enzyme; parameters: method as in Lee et al, 2010; Woessner et al, 2010; conditions: ref Lee et al, 2010, Woessner et al, read-out: half-maximal inhibitory concentration; cited from earlier work
[8] = BRAF-mutant colorectal cancer cohort (45 mg BID)
[9] = KRAS-mutant colorectal cancer 45 mg dose cohort
[10] = KRAS-mutant colorectal cancer 60 mg dose cohort

Cn1cnc2c(F)c(Nc3ccc(Br)cc3F)c(C(=O)NOCCO)cc21 [binimetinib]
RAUC (accumulation ratio) ([1]; cycle 1 day 15, Total (N=26)): 1.44 (32.8) | RAUC (accumulation ratio) ([1]; cycle 1 day 15, expansion Biliary 60 mg BID (n=7)): 2.50 (NC) | Cmax ([1]; 30 mg BID, cycle 1 day 1, dose-escalation 30 mg BID (n=4)): 327 ng/mL | AUC(0-t) ([1]; 30 mg BID, cycle 1 day 1, dose-escalation 30 mg BID (n=4), intensive sampling, read-out: AUC0–8): 1000 ng·h/mL | Tmax ([1]; 30 mg BID, cycle 1 day 1, dose-escalation 30 mg BID (n=4), median (minimum–maximum), read-out: tmax): 1.51 h | Tmax ([1]; 30 mg BID, cycle 1 day 15, dose-escalation 30 mg BID (n=4), median (minimum–maximum), read-out: tmax): 1.5 h | Cmax ([1]; 30 mg, cycle 1 day 15, dose-escalation 30 mg BID (n=4)): 417 ng/mL | Cmax ([1]; 45 mg BID, cycle 1 day 1, dose-escalation 45 mg BID (n=4)): 241 ng/mL | AUC(0-t) ([1]; 45 mg BID, cycle 1 day 1, dose-escalation 45 mg BID (n=4), intensive sampling, read-out: AUC0–8): 964 ng·h/mL | Tmax ([1]; 45 mg BID, cycle 1 day 1, dose-escalation 45 mg BID (n=4), median (minimum–maximum), read-out: tmax): 2.53 h | Tmax ([1]; 45 mg BID, cycle 1 day 15, dose-escalation 45 mg BID (n=4), median (minimum–maximum), read-out: tmax): 2 h | Cmax ([1]; 45 mg, cycle 1 day 15, dose-escalation 45 mg BID (n=4)): 273 ng/mL | AUC(0-t) ([1]; 45 mg, cycle 1 day 15, dose-escalation 45 mg BID (n=4), read-out: AUC0-8): 1490 ng·h/mL | Cmax ([1]; 60 mg BID, cycle 1 day 1, dose-escalation 60 mg BID (n=7)): 545 ng/mL | AUC(0-t) ([1]; 60 mg BID, cycle 1 day 1, dose-escalation 60 mg BID (n=7), intensive sampling, read-out: AUC0–8): 1710 ng·h/mL | Tmax ([1]; 60 mg BID, cycle 1 day 1, dose-escalation 60 mg BID (n=7), median (minimum–maximum), read-out: tmax): 1 h | Tmax ([1]; 60 mg BID, cycle 1 day 15, dose-escalation 60 mg BID (n=7), median (minimum–maximum), read-out: tmax): 3 h | Cmax ([1]; 60 mg, cycle 1 day 1, expansion Biliary 60 mg BID (n=7)): 365 ng/mL | AUC(0-t) ([1]; 60 mg, cycle 1 day 1, expansion Biliary 60 mg BID (n=7), intensive sampling, read-out: AUC0–8): 1090 ng·h/mL | Tmax ([1]; 60 mg, cycle 1 day 1, expansion Biliary 60 mg BID (n=7), median (minimum–maximum), read-out: tmax): 1.5 h | Cmax ([1]; 60 mg, cycle 1 day 15, dose-escalation 60 mg BID (n=7)): 512 ng/mL | AUC(0-t) ([1]; 60 mg, cycle 1 day 15, dose-escalation 60 mg BID (n=7), read-out: AUC0-8): 1820 ng·h/mL | Cmax ([1]; 60 mg, cycle 1 day 15, expansion Biliary 60 mg BID (n=7)): 594 ng/mL | AUC(0-t) ([1]; 60 mg, cycle 1 day 15, expansion Biliary 60 mg BID (n=7), read-out: AUC0-8): 3760 ng·h/mL | Tmax ([1]; 60 mg, cycle 1 day 15, expansion Biliary 60 mg BID (n=7), median (minimum–maximum), read-out: tmax): 1.5 h | Cmax ([1]; 80 mg BID, cycle 1 day 1, dose-escalation 80 mg BID (n=4)): 687 ng/mL | AUC(0-t) ([1]; 80 mg BID, cycle 1 day 1, dose-escalation 80 mg BID (n=4), intensive sampling, read-out: AUC0–8): 2220 ng·h/mL | Tmax ([1]; 80 mg BID, cycle 1 day 1, dose-escalation 80 mg BID (n=4), median (minimum–maximum), read-out: tmax): 2.02 h | Tmax ([1]; across all dose levels and both sampling schemes, read-out: tmax, median values): 0.5 to 4 h | Tmax ([1]; cycle 1 day 1, Total (N=26), median (minimum–maximum), read-out: tmax): 1.5 h | Tmax ([1]; cycle 1 day 15, Total (N=26), median (minimum–maximum), read-out: tmax): 1.5 h | Pre-dose concentrations on cycle 1 day 15 versus 12 h concentrations on day 1 ([1]; intensive pharmacokinetic sampling): up to threefold higher | Steady state ([1]; limited sampling, 45 and 60 mg BID, no formal steady-state analysis): likely at steady state by cycle 1 day 15 | Dose proportionality of exposure ([1]; over the dose range tested, days 1 and 15 of cycle 1): Dose-proportional increases; also recorded: approximately dose proportional | Skin expression of Ki67, median (range) percent of baseline (Ki67; 30 mg BID (n=4)): 44 (25–56) percent of baseline | Skin expression of Ki67, median (range) percent of baseline (Ki67; 45 mg BID (n=22)): 33 (6–300) percent of baseline | Skin expression of Ki67, median (range) percent of baseline (Ki67; 60 mg BID (n=7)): 31 (17–100) percent of baseline | Skin expression of Ki67, median (range) percent of baseline (Ki67; Total (N=33)): 33 (6–300) percent of baseline | Changes in C-reactive protein, interferon, IL-10, IL-12p70, IL-1β, IL-6, or IL-8 [2]: no notable changes | PFS vs dacarbazine (NRAS-mutant melanoma [3]): significantly longer PFS | Response rate (NRAS-mutant melanoma [4]): 15% | Change in skin pMEK relative to baseline (pMEK): no notable changes | Inhibition of proliferation (human cancer cell lines): potently inhibits | Median OS [5, 8]: 7.1 months | Median PFS [5, 8]: 1.4 months | Median OS [5, 9]: 4.7 months | Median PFS [5, 9]: 1.5 months | Median OS [5, 10]: 9.1 months | Median PFS [5, 10]: 3.5 months | Median OS ([5]; biliary cohort (60 mg BID)): 4.8 months | Median PFS ([5]; biliary cohort (60 mg BID)): 2.1 months | MTD/recommended phase 2 dose [6]: 45 mg | Inhibition of ERK phosphorylation (ERK phosphorylation): markedly inhibits | Anti-tumour activity in xenograft models [7]: broad anti-tumour activity | IC50 (purified MEK enzyme): 12 nM
